Test results reported in US11014947B2, “Lipophenol compounds and uses thereof” (INSTITUT NATIONAL DE LA SANTE ET DE LA RECHERCHE MEDICALE …, priority 2014, dated 2021).
Read-outs that look alike come from different tables or passages of the source.

Legend:
ARPE-19 = assay: atRAL-induced cell death, Annexin V-FITC / propidium iodide flow cytometry; assay type: cell-based; conditions: 4 h
Protocol: Further investigations were made to define the atRAL-induced cell death (apoptotic versus necrotic) and validate the protective effect of PG-OiP-DHA (FIG. 6). Cells were incubated for 4 h with atRAL 25 μM, PG-OiP-DHA (compound 13b) 40 μM, or both. Treated ARPE-19 were labeled with Annexin V-FITC (A) and propidium iodide (PI) to separate by flow cytometry healthy cells (no labeling), early apoptosis (A+ and PI−) and necrotic cells (A+ and PI+). In CTL or PG-OiP-DHA-treated cells only 6 to 10% died. After 4 h atRAL, cell death reached 46%, mainly at necrotic stage (41%).

ARPE-19 cell lines [1] = conditions: for % Survival: untreated cells = 100; for cell survival: text summary of Table 1, AtR 25 μM
Protocol: The biological assay is based on the measure of cell survival after treatment with the lipophenol prior incubation (pre-incubation process) with the carbonyl stressor AtR. The toxic AtR concentration (25 μM) was determined to reduce cell survival by 60 to 70%. Results are expressed as % of cell survival in treated (lipophenol/all-trans-retinal) vs untreated cells (taken as 100%).
ARPE-19 cells were settled in 96-well plates (3×10^4 cells/well) and cultured 24 h to reach confluence before drug treatment. Cell cultures received a serum-free medium containing drugs at different concentrations (10-40 μM) for one hour and trans-retinal (25 μM) was added for 4 more hours before rinsing with medium. The viability of cells in triplicate samples was determined 16-20 h after with a MTT colorimetric assay. After 2 h incubation with 0.5 mg/ml MU, insoluble purple formazan produced was dissolved in DMSO. The absorbance at 570 nm and 655 nm of individual wells was measured by a microplate reader (BioRad 550).

complexes CI and CII = assay: Mitochondrial respiration in ARPE-19 cell line (oxygraph); assay type: cell-based
Excerpt: Oxidative stress originates from physiological reactions taking place practically inside each cell of an organism. The production of reactive oxygen species (ROS) accompanies, for example, oxidative phosphorylation-derived ATP-based energy metabolism which takes place in the mitochondria of a cell. Under physiological conditions, ROS are neutralized by effective enzymatic and non-enzymatic defense mechanisms, contributing to the maintenance of a proper balance. However, an excess of ROS, resulting from their overproduction in pathophysiological conditions, will disturb the equilibrium and lead eventually to deleterious consequences for the cell. Maeda et al. (JBC 284(22), 2009) have reported that atRal impairs mitochondrial oxidative phosphorylation. Therefore, mitochondrial respiration was measured in ARPE-19 cell line using oxygraph after exposure to 25 μM atRal and/or 40 μM 13b (FIG. 3).

ARPE-19 cell lines [2] = assay: ARPE-19 cell survival, co-treatment with atRAL 25 μM; assay type: cell-based
Protocol: Co-treatment were performed with lipophenols onto ARPE-19 (FIG. 4). Incubation for 4 h with atRAL decreased cell viability to 35%. The protection of ARPE-19 by phloroglucinol (PG) was dose-dependent but weak (less than 10%). In contrast, most of the PG derivatives were more protective, in particular the presence of two or three DHA linked to PG provided a strong protection (up to 73% survival), as well as the mono-alkylation (methyl and isopropyl) were sufficient to protect 60% of cells. PG-OiP-DHA was confirmed to be among the most efficient (74%).

RPE primary cells [3] = assay: Primary RPE cultures, pre-treatment 24 h, H2O2 450 μM 2 h, cell viability assay; assay type: cell-based; conditions: H2O2 450 μM 2 h (FIG. 7)
Protocol: a. Pre-treatment 24 h, H2O2 450 μM 2 h; cell viability assay

RPE primary cells [4] = assay: Primary RPE cultures, co-incubation 4 h with atRAL 25 μM, cell viability assay; assay type: cell-based; conditions: co-incubation 4 h with atRAL 25 μM (FIG. 9)
Protocol: c. Co-incubation 4 h with atRAL 25 μM; cell viability assay
To compare the anti-carbonyl efficacies of phloroglucinol (22% gain of survival) and PG-OiP-DHA (69%) in a condition to probe their scavenging properties in primary RPE cells (FIG. 9).

[5] = system: mitochondrial respiratory chain (MRC) complex; assay: Mitochondrial respiratory chain complex enzymatic activities and protein expression; assay type: cell-based; conditions: atRAL treatment with PG-OiP-DHA (FIG. 5, FIG. 14)
Excerpt: In a cellular context, PG-OiP-DHA (compound 13b) has been shown able to partially restore mitochondrial oxidative respiration impaired by the atRAL (example 10). Because this repair might be produced by targeting the whole oxidative chain or each individual respiratory complex, this potency was further investigated by measuring the intrinsic activity of each mitochondrial respiratory chain (MRC) complex (enzymology) and their level of protein expression (FIG. 5). […] This was supported by the loss of MRC protein expression.
Several experiments were made to validate the efficacy of PG-OiP-DHA in the protection of the mitochondrial activity (FIG. 14).

RPE primary cells [6] = assay: Primary RPE cultures, pre-treatment 24 h, atRAL 25 μM 4 h, cell viability assay; assay type: cell-based; conditions: atRAL 25 μM 4 h (FIG. 8)
Protocol: b. Pre-treatment 24 h, atRAL 25 μM 4 h; cell viability assay

[7] = system: neural retina cell cultures; assay: Cytoprotection in neural retina cell cultures exposed to atRal (MTT); assay type: cell-based; conditions: 13b 10 to 100 μM, atRal 50-75-100 μM added 1 h after, 4 h co-incubation
Protocol: The effect of compound 13b on cell viability was examined after co-incubation with atRal. Cell cultures were incubated with 13b (10 to 100 μM) and atRal (50-75-100 μM) was added 1 h after for a 4 h co-incubation. Cells were then cultured in serum-free medium for 16-20 h and their viability was determined with a MTT assay.

[8] = compound 10 μM 1 h, then AtR 25 μM 4 h, MTT after 16-20 h
[9] = compound 40 μM 1 h, then AtR 25 μM 4 h, MTT after 16-20 h
[10] = co-incubation atRAL 25 μM + PG-OiP-DHA 40 μM

CC1=C(/C=C/C(C)=C/C=C/C(C)=C/C=O)C(C)(C)CCC1 [AtR, all-trans-retinal, reference compound]
cell death (ARPE-19; atRAL 25 μM alone): 46% | necrotic stage cells (ARPE-19; atRAL 25 μM alone): 41% | % Survival (ARPE-19 cell lines [1]; AtR 25 μM alone): 29.1 ± 5.4% | inhibition of the activity of complexes CI and CII (complexes CI and CII; 25 μM atRal alone): strongly inhibits | cell viability (ARPE-19 cell lines [2]; atRAL 25 μM alone, 4 h): 35%

CC/C=C\C/C=C\C/C=C\C/C=C\C/C=C\C/C=C\CCC(=O)Oc1cc(OC(=O)CC/C=C\C/C=C\C/C=C\C/C=C\C/C=C\C/C=C\CC)cc(OC(=O)CC/C=C\C/C=C\C/C=C\C/C=C\C/C=C\C/C=C\CC)c1 [Compound 8, (4,4′,4″,7,7′,7″,10,10′,10″,13,13′,13″,16,16′,16″,19,19′,19″Z)-benzene-1,3,5-triyl tridocosa-4,7,10,13,16,19-hexaenoate]
% Survival (ARPE-19 cell lines [1]; [8]): 33.3 ± 4.1% | % Survival (ARPE-19 cell lines [1]; [9]): 47.7 ± 3.2% | cell survival (ARPE-19 cell lines [1]): 50%

CC(C)Oc1cc(O)cc(O)c1 [Compound 9b, 5-isopropoxybenzene-1,3-diol, reference compound]
% Survival (ARPE-19 cell lines [1]; [8]): 30.6 ± 1.2% | % Survival (ARPE-19 cell lines [1]; [9]): 32.7 ± 1.8%

CC/C=C\C/C=C\C/C=C\C/C=C\C/C=C\C/C=C\CCC(=O)Oc1cc(O)cc(OC)c1 [Compound 13a, (4,7,10,13,16,19 Z)-3-hydroxy-5-methoxyphenyl docosa-4,7,10,13,16, 19-hexaenoate]
% Survival (ARPE-19 cell lines [1]; [8]): 32.6 ± 3.7% | % Survival (ARPE-19 cell lines [1]; [9]): 44.9 ± 1.9% | cell survival (ARPE-19 cell lines [1]): as active as 8

CC/C=C\C/C=C\C/C=C\C/C=C\C/C=C\C/C=C\CCC(=O)Oc1cc(O)cc(OC(C)C)c1 [Compound 13b, (4,7,10,13,16,19 Z)-3-hydroxy-5-isopropoxyphenyl docosa-4,7,10,13,16,19-hexaenoate]
gain of survival (anti-oxidant efficacy) (RPE primary cells [3]): 20% | necrotic cells (ARPE-19; [10]): 16% | total cell death (ARPE-19; [10]): 18% | gain of survival (anti-carbonyl efficacy, scavenging) (RPE primary cells [4]): 69% | preservation of complex II and IV enzymatic activities affected by atRAL [5]: significantly preserved | % Survival (ARPE-19 cell lines [1]; [8]): 43.2 ± 7.5% | % Survival (ARPE-19 cell lines [1]; [9]): 66.8 ± 8.6% | gain of survival (anti-carbonyl efficacy) (RPE primary cells [6]): 42% | reversal of atRal inhibition of complexes CI and CII (complexes CI and CII; 40 μM 13b with 25 μM atRal): partially reverse this inhibition | inhibition of the activity of each complex by the compound alone (complexes CI and CII; 40 μM 13b, no atRal): no significant inhibition | survival (ARPE-19 cell lines [2]; co-treatment with atRAL 25 μM 4 h, doses 5-80 μM (FIG. 4)): 74% | reversal of atRal cytotoxicity [7]: robustly reversed

CC/C=C\C/C=C\C/C=C\C/C=C\C/C=C\C/C=C\CCC(=O)Oc1ccc(/C=C/c2cc(O)cc(O)c2)cc1 [Compound 20, (4,7,10,13,16,19 Z)-4-((E)-3,5-dihydroxyphenylstyryl)phenyl docosa-4,7,10,13,16,19-hexaenoate]
protective effect (ARPE-19 cell lines [2]; co-treatment with atRAL 25 μM 4 h (FIG. 4)): very potent

CC/C=C\C/C=C\C/C=C\C/C=C\C/C=C\C/C=C\CCC(=O)O [DHA, docosahexaenoic acid, reference compound]
% Survival (ARPE-19 cell lines [1]; [8]): 23.5 ± 2.7% | % Survival (ARPE-19 cell lines [1]; [9]): 7.3 ± 5.0%

Oc1cc(O)cc(O)c1 [Phloroglucinol, phloroglucinol, reference compound]
gain of survival (anti-oxidant efficacy) (RPE primary cells [3]): 10% | gain of survival (anti-carbonyl efficacy, scavenging) (RPE primary cells [4]): 22% | increase of RPE cell survival (ARPE-19 cell lines [1]; 40 μM, AtR 25 μM): 10% | % Survival (ARPE-19 cell lines [1]; [8]): 35.5 ± 3.3% | % Survival (ARPE-19 cell lines [1]; [9]): 41.6 ± 9.2% | gain of survival (anti-carbonyl efficacy) (RPE primary cells [6]): 18% | protection of ARPE-19 (ARPE-19 cell lines [2]; co-treatment with atRAL 25 μM, doses 5-80 μM): less than 10%
